Experiments:
[1] = tested on: human hepatocarcinoma cell line HepG2; conditions: cited from earlier work

melting point | Compound | IC50 [1] | activity toward HepG2 relative to kalkitoxin ([1]; hydroxalog versus parent natural product)
 | 10-aza-9-oxakalkitoxin | 2.4 ng/mL | complete retention of activity
92 to 93 °C | CC(C)(C)ON1CCN(c2cccc(Cl)c2Cl)CC1 |  | 
 | kalkitoxin | 3.2 ng/mL | 
77.6 to 78.8 °C | CC(C)(C)ON1CCN(c2ccc(C(F)(F)F)cc2)CC1 |  | 

From patent publication US11912647B2, “Diversity-oriented synthesis of N,N,O-trisubstituted hydroxylamines from alcohols and amines by N—O bond formation” (University of Georgia Research Foundation, Inc., priority 2020, dated 2024)
